For assay [1], the system named is H2O2, hydroxyl radical, and peroxynitrite. Description: Neutralization of reactive species and lipid peroxidation. The class given is biochemical.
The test system of assay [2] is animal models of ischemia-reperfusion injury, neurodegenerative diseases, and metabolic syndrome. The experiment in a line: Animal models of ischemia-reperfusion injury, neurodegenerative diseases, and metabolic syndrome. The class given is in vivo.
A further assay deals with mitochondrial ROS. Description: Cellular and animal studies of mitochondrial ROS and function.
The subject of another assay is isolated mitochondria. The experiment in a line: ATP synthesis in isolated mitochondria. As to conditions: for rate of ATP production: isolated mitochondria energized with low concentrations of succinate, FIG. 15. The class given is biochemical, rat. On the procedure: (§1) Mitochondrial O2 consumption and ATP production: Fresh mitochondria were isolated from rat kidney as described previously. Electron flux was measured by O2 consumption (Oxygraph Clark electrode) as previously described using different substrates for C1 (glutamate/malate), C2 (succinate), and C3 (TMPD/ascorbate). Assays were carried out under low substrate conditions in order to avoid saturating the enzyme reactions. ATP production in isolated mitochondria was determined kinetically using the luciferase method (Biotherma) in a 96-well luminescence plate reader (Molecular Devices). The initial maximal rate for ATP synthesis was determined over the first minute.
The rate of mitochondrial ATP synthesis was determined by measuring ATP in respiration buffer collected from isolated mitochondria 1 min after addition of […] (FIG. 6). ATP was assayed by HPLC. All experiments were carried out in triplicate, with n=3.
(§2) SS-20 or SS-31 was added at 100 μM concentrations to isolated mitochondria in respiration buffer containing 0.5 mM succinate (complex II substrate) and 400 μM ADP.

In assay [3] the target is T1, cytochrome c (Homo sapiens, UniProt P99999). Description: Photoluminescence of cytochrome c (532.8 nm excitation, 650 nm emission). The class given is biochemical. As to conditions: Nd:YDO4 laser 532.8 nm. An excerpt: A light source 140, such as a laser or light-emitting diode (LED), illuminates the peptide-doped cytochrome c layer 110 at an excitation wavelength, such as 532.8 nm. […] (As understood by those skilled in the art, the gap between the valence band and the excited state is […] to the excitation wavelength.) After a short relaxation time, the electron decays from the excited state to a conduction band. When the electron relaxes to valence band from the conduction band, the peptide-doped cytochrome c layer 110 emits a photon at a luminescence wavelength, such as 650 nm, fixed by the gap between the valence and conduction bands.
T1 sequence (P99999 whole entry, species assumed): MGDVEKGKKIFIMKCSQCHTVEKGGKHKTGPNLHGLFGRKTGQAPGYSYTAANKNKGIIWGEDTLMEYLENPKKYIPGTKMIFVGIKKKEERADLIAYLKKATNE
Thus, as the aromatic-cationic peptide concentration in the peptide-doped cytochrome c layer 110 varies due to changes in the pH and/or temperature of the test substrate 130, the intensity at the luminescence wavelength varies as well. Detecting this change in intensity with a photodetector 150 yields an indication of the pH and/or temperature of the test substrate 130.
Photoluminescence (PL) was carried out to examine the effects of SS-31 on the electronic structure of conduction band of the […] of cytochrome c, an energy state responsible for electronic transport (FIG. 3). A […] laser (532.8 nm) was used to excite electrons in cytochrome c (FIG. 2A). Strong PL emission in cytochrome c state can be clearly identified at 650 nm (FIG. 2B).

Assay [4] concerns cytochrome c-depleted mitoplasts made from once-frozen rat kidney mitochondria. The experiment in a line: O2 consumption in cytochrome c-depleted mitoplasts. The class given is biochemical. As to conditions: 500 μM Succinate, 100 μM SS-31; FIG. 7. On the procedure:
Rates of respiration were measured in the presence of 500 μM Succinate with or without 100 μM SS-31. The experiment was carried out in triplicate, with n=3.

In assay [5] the target is T1, cytochrome c. Description: Cytochrome c reduction by absorption spectroscopy (absorbance at 550 nm). The class given is biochemical. As to conditions: for rate of cytochrome c reduction: glutathione (GSH) as reducing agent, absorbance at 550 nm, FIG. 1B, FIG. 13. On the procedure:
Cytochrome c reduction: increasing amounts of aromatic-cationic peptides were added to a solution of oxidized cytochrome c. The formation of reduced cytochrome c was monitored by absorbance at […]. The rate of cytochrome c reduction was determined by non-linear analysis (Prizm software).
Time-resolved UV-Visible absorption spectroscopy was used to study the electron transport process of cytochrome c in the presence of peptides. Reduced cytochrome c was monitored by absorbance at a broad-band spectral range (200-1100 nm). The absorption changes were recorded with a UV/Visible spectrophotometer (Ultrospec 3300 pro, GE) in quartz cells with path lengths of 1 or 2 mm. N-acetylcysteine (NAC) and glutathione were used as electron donors to reduce oxidized cytochrome c. The rate constant of cytochrome c reduction was estimated by adding various concentrations of peptides. The dose dependence of the peptides was correlated to the cytochrome c reduction kinetics.
Absorption spectroscopy (UltroSpec 3300 Pro; 220-1100 nm) was used to determine if SS-31 modulates cytochrome c reduction (FIG. 1). Reduction of cytochrome c with glutathione is associated with multiple shifts in the Q band (450-650 nm), with a prominent shift at 550 nm.
SS-31 and SS-20 can accelerate the kinetics of cytochrome c reduction induced by glutathione (GSH) as a reducing agent (FIG. 13). Reduction of cytochrome c was monitored by increase in absorbance at 550 nm. […] Similar results were obtained using N-acetylcysteine (NAC) as a reducing agent (not shown).

Assay [6] addresses T1, cytochrome c. Description: Circular dichroism of Soret band of cytochrome c. The class given is biochemical. As to conditions: FIG. 4. On the procedure:
Circular dichroism (Olis spectropolarimeter, DSM20) was carried out to monitor Soret band (negative peak at 415 nm), as a probe for the π-π* heme environment in cytochrome c (FIG. 4). […] The increase in π-π* interaction around the heme would enhance electron tunneling which would be favorable for electron diffusion.
(Circular dichroism is the unequal absorption of left and right circularly polarised light.)

Assay [7] concerns isolated rat kidney mitochondria. Description: O2 consumption of isolated rat kidney mitochondria (Oxygraph). The class given is biochemical. The conditions noted are these: for electron flux, as measured by O2 consumption: 100 μM peptide, 0.5 mM succinate (complex II substrate) and 400 μM ADP, FIG. 14. On the procedure: as §1
Oxygen consumption of isolated rat kidney mitochondria was determined using the Oxygraph (FIG. 5). Rates of respiration were measured in the presence of different concentrations of SS-31 in state 2 (400 μM ADP only), state 3 (400 μM ADP and 500 μM substrates) and state 4 (substrates only). All experiments were done in triplicate with n=4-7.
as §2

Assay [8] has as its target T1, cytochrome c. The experiment in a line: Cyclic voltammetry of cytochrome c. The class given is biochemical.

“Also recorded” adds a separate entry of the source. Non-standard residues stand in square brackets, D forms with d. No end group written: not given here.

On to D-Arg-2′6′-Dmt-Tyr-Lys-Phe-NH2, for which, in assay [1], the lipid peroxidation entry is reported as “inhibit lipid peroxidation”; the “neutralization of H2O2, hydroxyl radical, and peroxynitrite” value was “can neutralize H2O2, hydroxyl radical, and peroxynitrite”. In addition, the “efficacy in animal models” value in assay [2] is recorded as “remarkable efficacy”. Also, the “mitochondrial ROS and mitochondrial function” value in the assay with mitochondrial ROS is “reduces mitochondrial ROS and protect mitochondrial function”.
For the substance D-Arg-2′,6′-Dmt-Lys-Phe-NH2 [SS-31], in the assay with isolated mitochondria (ATP by HPLC 1 min after addition of 400 mM ADP, FIG. 6), the “rate of ATP synthesis” value was “dose-dependently increased”. Also, the “rate of ATP production” value in the assay with isolated mitochondria is recorded as “significant increase”. At cytochrome c [3], the “PL intensity of cytochrome c at 650 nm” value is listed as “increased dose-dependently”. Also, the “mitochondrial O2 consumption (rates of respiration) in cytochrome c-depleted mitoplasts” value in assay [4] was “Enhances Respiration”. Besides, the “rate of NAC-induced cytochrome c reduction” value on cytochrome c [5] (N-acetylcysteine (NAC) as reducing agent) is reported as “dose-dependently increased”. The “rate of cytochrome c reduction” value on cytochrome c [5] is “increased; also recorded: accelerate”. In addition, the “reduction of cytochrome c by peptide alone” value on cytochrome c [5] (peptide alone at 100 μM, no reducing agent) was “did not reduce cytochrome c”. Besides, the “spectral weight shift at 550 nm of cytochrome c” value at cytochrome c [5] (reduction of cytochrome c with glutathione, FIG. 1A) was “significant spectral weight shift”. For the same substance, the “denaturing of cytochrome c” value at cytochrome c [6] is reported as “without denaturing”. In addition, the “Soret band peak position after red shift” value on cytochrome c [6] (negative peak at 415 nm without peptide) is 440 nm. Besides, the “electron flux, as measured by O2 consumption” value in assay [7] was “promote electron flux”. Also, the “rates of respiration (O2 consumption)” value in assay [7] (different concentrations of SS-31, state 2, state 3 and state 4, FIG. 5) was “promoted electron transfer to oxygen without uncoupling mitochondria”. In addition, the “current for reduction and oxidation processes of cytochrome c” value on cytochrome c [8] (Au working electrode, Ag/AgCl reference, FIG. 2 upper panel) is listed as “increased current”. In addition, at cytochrome c [8] (FIG. 2 upper panel), the “reduction/oxidation potentials of cytochrome c” value is “does not alter”. Moreover, the “increase of current (electron diffusion rate)” value on cytochrome c [8] (cytochrome c:SS-31=1:2, TBE buffer, FIG. 2 lower panel) is ~200%.
Take F[dR]FK-NH2 [SS-20]: in the assay on isolated mitochondria, the “rate of ATP production” value was “significant increase”. Moreover, the “rate of cytochrome c reduction” value at cytochrome c [5] was “accelerate”. In assay [7], the “electron flux, as measured by O2 consumption” value is “promote electron flux”.

For the origin of these results see patent publication US20170240593A1, “AROMATIC-CATIONIC PEPTIDES AND USES OF SAME” (Cornell University, priority 2011, published 2017).
